Assays:
[1] = Cytotoxicity against human HCT116 cells assessed as growth level at 10 uM after 48 hrs by SRB assay; assay type: functional, HCT-116
[2] = Cytotoxicity against human UACC257 cells assessed as growth level at 10 uM after 48 hrs by SRB assay; assay type: functional, UACC-257
[3] = Cytotoxicity against human OVCAR8 cells assessed as growth level at 10 uM after 48 hrs by SRB assay; assay type: functional, OVCAR-8
[4] = Cytotoxicity against human OVCAR4 cells assessed as growth level at 10 uM after 48 hrs by SRB assay; assay type: functional, OVCAR-4
[5] = test system: KM12; assay: Cytotoxicity against human KM12 cells assessed as growth level at 10 uM after 48 hrs by SRB assay; assay type: functional
[6] = test system: Malme-3M; assay: Cytotoxicity against human MALME-3M cells assessed as growth level at 10 uM after 48 hrs by SRB assay; assay type: functional
[7] = test system: MDA-MB-468; assay: Cytotoxicity against human MDA-MB-468 cells assessed as growth inhibition at 10 uM after 48 hrs by SRB assay; assay type: functional; settings: MDA-MB-468, 48 h, read-out: GI
[8] = test system: MDA-MB-231; assay: Cytotoxicity against human MDA-MB-231 cells assessed as growth level at 10 uM after 48 hrs by SRB assay; assay type: functional
[9] = test system: SR; assay: Cytotoxicity against human SR cells assessed as growth inhibition at 10 uM after 48 hrs by SRB assay; assay type: functional; settings: read-out: GI
[10] = test system: MDA-MB-468; assay: Cytotoxicity against human MDA-MB-468 cells assessed as growth level at 10 uM after 48 hrs by SRB assay; assay type: functional
[11] = Cytotoxicity against human LOXIMVI cells assessed as growth inhibition at 10 uM after 48 hrs by SRB assay; assay type: functional; settings: LOX IMVI, read-out: GI
[12] = Cytotoxicity against human SF268 cells assessed as growth level at 10 uM after 48 hrs by SRB assay; assay type: functional, SF-268
[13] = Cytotoxicity against human HCT116 cells assessed as growth inhibition at 10 uM after 48 hrs by SRB assay; assay type: functional; settings: HCT-116, 48 h, read-out: GI
[14] = test system: 786-0; assay: Cytotoxicity against human 786-0 cells assessed as growth inhibition at 10 uM after 48 hrs by SRB assay; assay type: functional; settings: 786-0, 48 h, read-out: GI
[15] = Cytotoxicity against human TK10 cells assessed as growth level at 10 uM after 48 hrs by SRB assay; assay type: functional, TK-10
[16] = test system: NCI-H226; assay: Cytotoxicity against human NCI-H226 cells assessed as growth inhibition at 10 uM after 48 hrs by SRB assay; assay type: functional; settings: NCI-H226, 48 h, read-out: GI
[17] = test system: A498; assay: Cytotoxicity against human A498 cells assessed as growth level at 10 uM after 48 hrs by SRB assay; assay type: functional
[18] = Cytotoxicity against human SKOV3 cells assessed as growth inhibition at 10 uM after 48 hrs by SRB assay; assay type: functional; settings: SK-OV-3, 48 h, read-out: GI
[19] = test system: MDA-MB-435; assay: Cytotoxicity against human MDA-MB-435 cells assessed as growth inhibition at 10 uM after 48 hrs by SRB assay; assay type: functional; settings: MDA-MB-435, 48 h, read-out: GI
[20] = test system: K562; assay: Cytotoxicity against human K562 cells assessed as growth level at 10 uM after 48 hrs by SRB assay; assay type: functional
[21] = test system: NCI-H460; assay: Cytotoxicity against human NCI-H460 cells assessed as growth inhibition at 10 uM after 48 hrs by SRB assay; assay type: functional; settings: NCI-H460, 48 h, read-out: GI
[22] = test system: K562; assay: Cytotoxicity against human K562 cells assessed as growth inhibition at 10 uM after 48 hrs by SRB assay; assay type: functional; settings: K562, 48 h, read-out: GI
[23] = Cytotoxicity against human MOLT4 cells assessed as growth inhibition at 10 uM after 48 hrs by SRB assay; assay type: functional; settings: MOLT-4, 48 h, read-out: GI
[24] = test system: MDA-MB-435; assay: Cytotoxicity against human MDA-MB-435 cells assessed as growth level at 10 uM after 48 hrs by SRB assay; assay type: functional
[25] = Cytotoxicity against human HCT15 cells assessed as growth inhibition at 10 uM after 48 hrs by SRB assay; assay type: functional; settings: HCT-15, 48 h, read-out: GI
[26] = test system: EKVX; assay: Cytotoxicity against human EKVX cells assessed as growth inhibition at 10 uM after 48 hrs by SRB assay; assay type: functional; settings: read-out: GI
[27] = Cytotoxicity against human NCI-ADR-RES cells assessed as growth level at 10 uM after 48 hrs by SRB assay; assay type: functional
[28] = test system: MDA-MB-231; assay: Cytotoxicity against human MDA-MB-231 cells assessed as growth inhibition at 10 uM after 48 hrs by SRB assay; assay type: functional; settings: MDA-MB-231, 48 h, read-out: GI
[29] = Cytotoxicity against human OVCAR3 cells assessed as growth level at 10 uM after 48 hrs by SRB assay; assay type: functional, OVCAR-3
[30] = Cytotoxicity against human OVCAR8 cells assessed as growth inhibition at 10 uM after 48 hrs by SRB assay; assay type: functional; settings: OVCAR-8, 48 h, read-out: GI
[31] = test system: SK-MEL-28; assay: Cytotoxicity against human SK-MEL-28 cells assessed as growth inhibition at 10 uM after 48 hrs by SRB assay; assay type: functional; settings: SK-MEL-28, 48 h, read-out: GI
[32] = test system: EKVX; assay: Cytotoxicity against human EKVX cells assessed as growth level at 10 uM after 48 hrs by SRB assay; assay type: functional
[33] = Cytotoxicity against human SNB19 cells assessed as growth inhibition at 10 uM after 48 hrs by SRB assay; assay type: functional; settings: SNB-19, 48 h, read-out: GI
[34] = Cytotoxicity against human Caki1 cells assessed as growth level at 10 uM after 48 hrs by SRB assay; assay type: functional, CAKI-1
[35] = Cytotoxicity against human SF295 cells assessed as growth level at 10 uM after 48 hrs by SRB assay; assay type: functional, SF-295
[36] = test system: 786-0; assay: Cytotoxicity against human 786-0 cells assessed as growth level at 10 uM after 48 hrs by SRB assay; assay type: functional
[37] = Cytotoxicity against human OVCAR3 cells assessed as growth inhibition at 10 uM after 48 hrs by SRB assay; assay type: functional; settings: OVCAR-3, 48 h, read-out: GI
[38] = Cytotoxicity against human SF539 cells assessed as growth inhibition at 10 uM after 48 hrs by SRB assay; assay type: functional; settings: SF-539, 48 h, read-out: GI
[39] = test system: ACHN; assay: Cytotoxicity against human ACHN cells assessed as growth level at 10 uM after 48 hrs by SRB assay; assay type: functional
[40] = test system: A549; assay: Cytotoxicity against human A549 cells assessed as growth level at 10 uM after 48 hrs by SRB assay; assay type: functional
[41] = test system: U-251; assay: Cytotoxicity against human U251 cells assessed as growth level at 10 uM after 48 hrs by SRB assay; assay type: functional
[42] = Cytotoxicity against human IGROV1 cells assessed as growth inhibition at 10 uM after 48 hrs by SRB assay; assay type: functional; settings: IGROV-1, 48 h, read-out: GI
[43] = Cytotoxicity against human SW620 cells assessed as growth inhibition at 10 uM after 48 hrs by SRB assay; assay type: functional; settings: SW-620, 48 h, read-out: GI
[44] = Cytotoxicity against human HOP92 cells assessed as growth inhibition at 10 uM after 48 hrs by SRB assay; assay type: functional; settings: HOP-92, 48 h, read-out: GI

C=C1CC[C@@H]2[C@](C)(COC(C)=O)[C@H](OC(C)=O)CC[C@@]2(C)[C@@H]1CC(NCCCC)C1=CCOC1=O (mixture of isomers)
Activity [1]: 80.22%
Activity [2]: 85.16%
Activity [3]: 89.63%
Activity [4]: 85.7%
Activity [5]: 92.79%
Activity [6]: 97.57%
inhibition of growth at 10 µM [7]: 33.8%
Activity [8]: 79.12%
inhibition of growth at 10 µM [9]: 51.5%
Activity [10]: 66.18%
inhibition of growth at 10 µM [11]: 9.61%
Activity [12]: 76.97%
inhibition of growth at 10 µM [13]: 19.8%
inhibition of growth at 10 µM [14]: 3.93%
Activity [15]: 99.06%
inhibition of growth at 10 µM [16]: 24.3%
Activity [17]: 75.44%
inhibition of growth at 10 µM [18]: 7.58%
inhibition of growth at 10 µM [19]: 11.4%
Activity [20]: 69.53%
inhibition of growth at 10 µM [21]: 8.38%
inhibition of growth at 10 µM [22]: 30.5%
inhibition of growth at 10 µM [23]: 44.5%
Activity [24]: 88.61%
inhibition of growth at 10 µM [25]: 3.11%
inhibition of growth at 10 µM [26]: 28.6%
Activity [27]: 87.27%
inhibition of growth at 10 µM [28]: 20.9%
Activity [29]: 91.12%
inhibition of growth at 10 µM [30]: 10.4%
inhibition of growth at 10 µM [31]: 1.91%
Activity [32]: 71.43%
inhibition of growth at 10 µM [33]: 12.7%
Activity [34]: 90.95%
Activity [35]: 94.28%
Activity [36]: 96.07%
inhibition of growth at 10 µM [37]: 8.88%
inhibition of growth at 10 µM [38]: 9.46%
Activity [39]: 99.42%
Activity [40]: 81.23%
Activity [41]: 86.76%
inhibition of growth at 10 µM [42]: 20%
inhibition of growth at 10 µM [43]: 4.99%
inhibition of growth at 10 µM [44]: 46.7%

C=C1CC[C@@H]2[C@](C)(COC(C)=O)[C@H](OC(C)=O)CC[C@@]2(C)[C@@H]1CC(NCCCCCCCC)C1=CCOC1=O (mixture of isomers)
Activity [1]: 35.89%
Activity [2]: 61.1%
Activity [3]: 70.96%
Activity [4]: 52.34%
Activity [5]: 68.58%
Activity [6]: 84.15%
inhibition of growth at 10 µM [7]: 68%
Activity [8]: 70.83%
inhibition of growth at 10 µM [9]: 63%
Activity [10]: 32.04%
inhibition of growth at 10 µM [11]: 46.1%
Activity [12]: 67.83%
inhibition of growth at 10 µM [13]: 64.1%
inhibition of growth at 10 µM [14]: 20.1%
Activity [15]: 82.68%
inhibition of growth at 10 µM [16]: 34.2%
Activity [17]: 64.34%
inhibition of growth at 10 µM [18]: 22.9%
inhibition of growth at 10 µM [19]: 22.4%
Activity [20]: 34.66%
inhibition of growth at 10 µM [21]: 47.3%
inhibition of growth at 10 µM [22]: 65.3%
inhibition of growth at 10 µM [23]: 63.5%
Activity [24]: 77.59%
inhibition of growth at 10 µM [25]: 33%
inhibition of growth at 10 µM [26]: 24.3%
Activity [27]: 87.68%
inhibition of growth at 10 µM [28]: 29.2%
Activity [29]: 48.95%
inhibition of growth at 10 µM [30]: 29%
inhibition of growth at 10 µM [31]: 14.4%
Activity [32]: 75.77%
inhibition of growth at 10 µM [33]: 21.2%
Activity [34]: 68.67%
Activity [35]: 81%
Activity [36]: 79.87%
inhibition of growth at 10 µM [37]: 51%
inhibition of growth at 10 µM [38]: 10.8%
Activity [39]: 85.98%
Activity [40]: 67.24%
Activity [41]: 55.53%
inhibition of growth at 10 µM [42]: 29.8%
inhibition of growth at 10 µM [43]: 27.6%
inhibition of growth at 10 µM [44]: 55.4%
